Assay results taken from US20250345390A1, “COMBINATION THERAPIES” (Gilead Sciences, Inc., priority 2024, published 2025).

System: HDV
Experiment: HBV/HDV co-infected viral spread assay in primary human hepatocytes (PHH)
Type: cell-based, hepatitis D virus (HDV) in primary human hepatocytes
Conditions: primary infection; lonafarnib 5 μM to 6.9 nM for 9 days; BLV 0.8 nM where present
Method: Cryopreserved PHH were thawed and cells were recovered by centrifugation at 100×g (Beckman Coulter, Allegra X-14R) through cryopreserved hepatocyte recovery medium (Thermo Fisher Scientific; CM7500) and plated in collagen coated 96-well plates (Thermo Fisher Scientific; CM1096) at a density of 70,000 live cells per well. Cells were plated in William's E medium (Thermo Fisher Scientific; A1217601) supplemented with 3.6% hepatocyte thawing and plating supplement (Thermo Fisher Scientific, A15563), 5% fetal bovine serum (Thermo Fisher Scientific; 16000-036), 1 μM dexamethasone (Thermo Fisher Scientific, A15563), and 0.2% Torpedo antibiotic mix (BioreclamationIVT; Z990008). […]
Vehicle and compound containing wells were normalized such that the final concentration of DMSO was 1.5% (v/v). The medium was collected and extracellular HBsAg was measured by an electrochemiluminescence assay (MSD) according to the manufacturer's instructions (Meso Scale Diagnostics, Rockville, MD). […] Levels of HDV RNA were calculated as fold change relative to DMSO treated sample using the 2-ΔΔCt method (Livak K J, Schmittgen T D. Analysis of relative gene expression data using real-time quantitative PCR and the 2(-Delta Delta C(T)) Method. Methods 2001).

NC(=O)N1CCC(CC(=O)N2CCC([C@H]3c4ncc(Br)cc4CCc4cc(Cl)cc(Br)c43)CC2)CC1 [lonafarnib, (R)-4-(2-(4-(3,10-dibromo-8-chloro-6,11-dihydro-5H-benzo[5,6]cyclohepta[1,2-b]pyridin-11-yl)piperidin-1-yl)-2-oxoethyl)piperidine-1-carboxamide]
intracellular HDV RNA (qRT-PCR, fold change relative to DMSO): induced dose-dependent intracellular accumulation of HDV RNA
